Test results from patent US20070167492A1, “Molluscicidal agents” (priority 2003, published 2007).

Experiments:
[1] = tested on: Deroceras reticulatum (grey field slug); assay: Example 2: pot re-test, treated winter wheat seed with 5 adult slugs per pot, 7 days; assay type: in vivo
In short: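 Pots sown with 40 treated winter wheat seeds on quartz sand over potting soil, each given 5 adult grey field slugs, kept at 18-19° C, ~95% RH, ~18 h light, no overhead irrigation; 4 replicates. Damaged seeds, intact plants, dead slugs and fecal pellets counted at 2, 3, 7 days; F-tests and Student tests.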

[2] = tested on: Deroceras reticulatum (grey field slug); assay: Example 1: pot test, treated winter wheat seed with 5 adult slugs per pot, 14 days; assay type: in vivo
In short: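 Fludioxonil-disinfected winter wheat seed (Kampa, 40 per pot) sown on quartz sand over potting soil with 5 adult slugs per pot; ±15° C., ±90% RH, 12 h light/12 h dark, 4 replicates. Damaged seeds, plants, dead slugs and fecal pellets counted up to day 14; F-tests and Student-tests.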

[3] = Example 2, 3.8 ml formulated per kg seed, 2 days after sowing
[4] = Example 2, 3.8 ml formulated per kg seed, 3 days after sowing
[5] = Example 2, 3.8 ml formulated per kg seed, 7 days after sowing
[6] = Example 2, after 2, 3 and 7 days
[7] = 3.8 ml formulated per kg seed, 2 days after sowing
[8] = 3.8 ml formulated per kg seed, 3 days after sowing
[9] = 3.8 ml formulated per kg seed, 7 days after sowing
[10] = 3.8 ml formulated per kg seed, 10 days after sowing
[11] = 3.8 ml formulated per kg seed, 14 days after sowing
[12] = 7.5 ml formulated per kg seed, 2 days after sowing
[13] = 7.5 ml formulated per kg seed, 3 days after sowing
[14] = 7.5 ml formulated per kg seed, 7 days after sowing
[15] = 7.5 ml formulated per kg seed, 10 days after sowing
[16] = 7.5 ml formulated per kg seed, 14 days after sowing
[17] = 11 ml formulated per kg seed, 2 days after sowing
[18] = 11 ml formulated per kg seed, 3 days after sowing
[19] = 11 ml formulated per kg seed, 7 days after sowing
[20] = 11 ml formulated per kg seed, 10 days after sowing
[21] = 11 ml formulated per kg seed, 14 days after sowing
[22] = 15 ml formulated per kg seed, 2 days after sowing
[23] = 15 ml formulated per kg seed, 3 days after sowing
[24] = 15 ml formulated per kg seed, 7 days after sowing
[25] = 15 ml formulated per kg seed, 10 days after sowing
[26] = 15 ml formulated per kg seed, 14 days after sowing

Structure (SMILES): CC1OC(C)OC(C)OC(C)O1 (stereo not shown) [metaldehyde]
- dead slugs observed during the course of the experiment ([1]; Example 2): More dead slugs
- result of seed treatment against slugs (conclusion) ([1]; Example 2): good action against slugs
- percentage of damaged seeds after 7 days ([1]; Example 2, 3.8 ml formulated per kg seed): 1%
- Mean number of damaged seeds per pot [1, 3]: 0.5
- Mean number of dead slugs per pot [1, 3]: 0.5
- Mean number of damaged seeds per pot [1, 4]: 0.3
- Mean number of dead slugs per pot [1, 4]: 0.8
- Mean number of damaged seeds per pot [1, 5]: 0.3
- Mean number of dead slugs per pot [1, 5]: 3.0
- number of fecal pellets per pot relative to the untreated control [1, 6]: significant reduction in the number of fecal pellets
- plants present relative to the untreated seed [1, 6]: significantly more plants present
- number of damaged seeds relative to the untreated seed ([1]; Example 2, two days after the start): significant reduction in the number of damaged seeds
- Mean number of fecal pellets per pot ([1]; dosage 3.8 ml, 2 days): 0
- Mean number of plants present per pot ([1]; dosage 3.8 ml, 2 days): 20.8
- Mean number of fecal pellets per pot ([1]; dosage 3.8 ml, 3 days): 0
- Mean number of plants present per pot ([1]; dosage 3.8 ml, 3 days): 32.5
- Mean number of fecal pellets per pot ([1]; dosage 3.8 ml, 7 days): 5
- Mean number of plants present per pot ([1]; dosage 3.8 ml, 7 days): 35.8
- number of utilizable plants after 7 days ([1]; dosage 3.8 ml, 7 days): 34.3
- number of utilizable plants after 14 days ([2]; 3.8 ml formulated per kg seed): 32.3
- percentage of damaged seeds after 14 days ([2]; 3.8 ml formulated per kg seed): 7%
- Mean number of damaged seeds per pot [2, 7]: 0
- Mean number of dead slugs per pot [2, 7]: 0
- Mean number fecal pellets per pot [2, 8]: 1
- Mean number of damaged seeds per pot [2, 8]: 0.3
- Mean number of dead slugs per pot [2, 8]: 0
- Mean number of plants present per pot [2, 8]: 9.3
- Mean number fecal pellets per pot [2, 9]: 4
- Mean number of damaged seeds per pot [2, 9]: 2.5
- Mean number of dead slugs per pot [2, 9]: 0
- Mean number of plants present per pot [2, 9]: 34.8
- Mean number fecal pellets per pot [2, 10]: 5
- Mean number of damaged seeds per pot [2, 10]: 1.3
- Mean number of dead slugs per pot [2, 10]: 0
- Mean number of plants present per pot [2, 10]: 33.0
- Mean number fecal pellets per pot [2, 11]: 31
- Mean number of damaged seeds per pot [2, 11]: 2.8
- Mean number of dead slugs per pot [2, 11]: 0.5
- Mean number of plants present per pot [2, 11]: 34.0
- number of utilizable plants after 14 days ([2]; 7.5 ml formulated per kg seed): 34.3
- percentage of damaged seeds after 14 days ([2]; 7.5 ml formulated per kg seed): 6%
- Mean number of damaged seeds per pot [2, 12]: 0
- Mean number of dead slugs per pot [2, 12]: 0
- Mean number fecal pellets per pot [2, 13]: 2
- Mean number of damaged seeds per pot [2, 13]: 0
- Mean number of dead slugs per pot [2, 13]: 0
- Mean number of plants present per pot [2, 13]: 3.5
- Mean number fecal pellets per pot [2, 14]: 4
- Mean number of damaged seeds per pot [2, 14]: 3.5
- Mean number of dead slugs per pot [2, 14]: 0.8
- Mean number of plants present per pot [2, 14]: 34.3
- Mean number fecal pellets per pot [2, 15]: 4
- Mean number of damaged seeds per pot [2, 15]: 2.5
- Mean number of dead slugs per pot [2, 15]: 1.0
- Mean number of plants present per pot [2, 15]: 35.3
- Mean number fecal pellets per pot [2, 16]: 6
- Mean number of damaged seeds per pot [2, 16]: 2.5
- Mean number of dead slugs per pot [2, 16]: 1.5
- Mean number of plants present per pot [2, 16]: 35.0
- number of utilizable plants after 14 days ([2]; 11 ml formulated per kg seed): 36.3
- percentage of damaged seeds after 14 days ([2]; 11 ml formulated per kg seed): 1%
- Mean number of damaged seeds per pot [2, 17]: 0
- Mean number of dead slugs per pot [2, 17]: 0
- Mean number fecal pellets per pot [2, 18]: 2
- Mean number of damaged seeds per pot [2, 18]: 0
- Mean number of dead slugs per pot [2, 18]: 0
- Mean number of plants present per pot [2, 18]: 9.8
- Mean number fecal pellets per pot [2, 19]: 2
- Mean number of damaged seeds per pot [2, 19]: 1.0
- Mean number of dead slugs per pot [2, 19]: 0.5
- Mean number of plants present per pot [2, 19]: 34.0
- Mean number fecal pellets per pot [2, 20]: 1
- Mean number of damaged seeds per pot [2, 20]: 0.3
- Mean number of dead slugs per pot [2, 20]: 0.5
- Mean number of plants present per pot [2, 20]: 35.8
- Mean number fecal pellets per pot [2, 21]: 3
- Mean number of damaged seeds per pot [2, 21]: 0.3
- Mean number of dead slugs per pot [2, 21]: 1.0
- Mean number of plants present per pot [2, 21]: 36.5
- number of utilizable plants after 14 days ([2]; 15 ml formulated per kg seed): 34.5
- percentage of damaged seeds after 14 days ([2]; 15 ml formulated per kg seed): 0%
- Mean number of damaged seeds per pot [2, 22]: 0.3
- Mean number of dead slugs per pot [2, 22]: 0
- Mean number fecal pellets per pot [2, 23]: 1
- Mean number of damaged seeds per pot [2, 23]: 0
- Mean number of dead slugs per pot [2, 23]: 0.3
- Mean number of plants present per pot [2, 23]: 6.3
- Mean number fecal pellets per pot [2, 24]: 3
- Mean number of damaged seeds per pot [2, 24]: 0.8
- Mean number of dead slugs per pot [2, 24]: 0.8
- Mean number of plants present per pot [2, 24]: 35.0
- Mean number fecal pellets per pot [2, 25]: 4
- Mean number of damaged seeds per pot [2, 25]: 0
- Mean number of dead slugs per pot [2, 25]: 0.8
- Mean number of plants present per pot [2, 25]: 35.0
- Mean number fecal pellets per pot [2, 26]: 5
- Mean number of damaged seeds per pot [2, 26]: 0
- Mean number of dead slugs per pot [2, 26]: 1.0
- Mean number of plants present per pot [2, 26]: 35.3
- damaged seeds relative to the control ([2]; Example 1, 3.8, 7.5, 11 or 15 ml per kg of seed, all dosages): significantly less damaged seeds
- plants present relative to untreated ([2]; Example 1, all dosages, after 7 days): significantly more plants present
- fecal pellets relative to the untreated seed ([2]; Example 1, at each dosage and at each observation): significantly less fecal pellets
- protection / slug controlling effect (conclusion) ([2]; Example 1, winter wheat seed treatment, dosages tested): excellent protection against slugs
